Reference: ChEMBL document CHEMBL4052687, “Synthesis of MeON-neoglycosides of digoxigenin with 6-deoxy- and 2,6-dideoxy-d-glucose derivatives and their anticancer activity” (2017)
Active and inactive are the calls of the source. The calls are words filed in the database; no cut-off is given here.

How the values were obtained:
NCI-H460 [1] = assay: Induction of Nur77 protein expression in human NCI-H460 cells at 20 nM incubated for 3 hrs by Western blot method relative to digoxin; type: functional, cell-based
NCI-H460 [2] = assay: Cytotoxicity in human NCI-H460 cells assessed as cell viability at 50 nM incubated for 48 hrs by MTT assay; type: functional; conditions: NCI-H460, 48 h, read-out: Activity
[3] = target: Nuclear receptor subfamily 4immunitygroup A member 1 (Homo sapiens) (UniProt P22736); assay: Induction of Nur77 protein translocation from nucleus to cytoplasm in human NCI-H460 cells at 20 nM incubated for 3 hrs by immunofluorescence microscopy; type: cell-based
Sequence of Nuclear receptor subfamily 4immunitygroup A member 1 (Homo sapiens) (P22736 whole entry): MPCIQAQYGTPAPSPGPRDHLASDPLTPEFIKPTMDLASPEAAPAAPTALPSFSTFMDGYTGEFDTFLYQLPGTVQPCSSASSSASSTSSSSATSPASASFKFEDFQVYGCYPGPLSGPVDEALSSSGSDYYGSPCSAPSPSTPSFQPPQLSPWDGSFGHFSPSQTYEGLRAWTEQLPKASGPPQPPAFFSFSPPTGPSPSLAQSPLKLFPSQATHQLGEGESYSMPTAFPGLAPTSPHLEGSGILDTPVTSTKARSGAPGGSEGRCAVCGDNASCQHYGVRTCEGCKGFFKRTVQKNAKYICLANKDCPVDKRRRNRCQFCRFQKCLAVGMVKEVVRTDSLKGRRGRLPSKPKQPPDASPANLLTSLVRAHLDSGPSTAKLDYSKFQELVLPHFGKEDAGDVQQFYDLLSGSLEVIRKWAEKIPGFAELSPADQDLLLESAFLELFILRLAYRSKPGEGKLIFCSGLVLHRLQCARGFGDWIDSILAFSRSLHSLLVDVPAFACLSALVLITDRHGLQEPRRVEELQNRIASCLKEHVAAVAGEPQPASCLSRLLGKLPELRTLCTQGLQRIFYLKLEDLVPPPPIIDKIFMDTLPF

Row | Compound | Activity (NCI-H460 [1]) | viability at 0.05 µM (NCI-H460 [2]) [%] | Activity [3]
1 | CO[C@@H]1[C@@H](O)[C@H](O)[C@@H](C)O[C@H]1N(OC)[C@@H]1CC[C@@]2(C)[C@H](CC[C@@H]3[C@@H]2C[C@@H](O)[C@]2(C)[C@@H](C4=CC(=O)OC4)CC[C@]32O)C1 | Active | > 90 | –
2 | CO[C@@H]1C[C@H](N(OC)[C@@H]2CC[C@@]3(C)[C@H](CC[C@@H]4[C@@H]3C[C@@H](O)[C@]3(C)[C@@H](C5=CC(=O)OC5)CC[C@]43O)C2)O[C@H](C)[C@H]1O | – | > 90 | Active
3 | CON[C@H]1CC[C@@]2(C)[C@H](CC[C@@H]3[C@@H]2C[C@@H](O)[C@]2(C)[C@@H](C4=CC(=O)OC4)CC[C@]32O)C1 | inactive | – | –
4 | CO[C@@H]1[C@@H](O)[C@H](OC)[C@@H](C)O[C@H]1N(OC)[C@H]1CC[C@@]2(C)[C@H](CC[C@@H]3[C@@H]2C[C@@H](O)[C@]2(C)[C@@H](C4=CC(=O)OC4)CC[C@]32O)C1 | Active | > 90 | Active
5 | CO[C@@H]1[C@@H](OC)[C@H](O)[C@@H](C)O[C@H]1N(OC)[C@@H]1CC[C@@]2(C)[C@H](CC[C@@H]3[C@@H]2C[C@@H](O)[C@]2(C)[C@@H](C4=CC(=O)OC4)CC[C@]32O)C1 | – | > 90 | Active
6 | CO[C@@H]1[C@@H](O)[C@H](O)[C@@H](C)O[C@H]1N(OC)[C@H]1CC[C@@]2(C)[C@H](CC[C@@H]3[C@@H]2C[C@@H](O)[C@]2(C)[C@@H](C4=CC(=O)OC4)CC[C@]32O)C1 | – | > 90 | –
7 | CON([C@@H]1CC[C@@]2(C)[C@H](CC[C@@H]3[C@@H]2C[C@@H](O)[C@]2(C)[C@@H](C4=CC(=O)OC4)CC[C@]32O)C1)[C@@H]1O[C@H](C)[C@@H](O)[C@H](O)[C@H]1O | Active | > 90 | –
8 | CON[C@@H]1CC[C@@]2(C)[C@H](CC[C@@H]3[C@@H]2C[C@@H](O)[C@]2(C)[C@@H](C4=CC(=O)OC4)CC[C@]32O)C1 | inactive | – | –
9 | CO[C@@H]1[C@@H](O)[C@H](N(OC)[C@H]2CC[C@@]3(C)[C@H](CC[C@@H]4[C@@H]3C[C@@H](O)[C@]3(C)[C@@H](C5=CC(=O)OC5)CC[C@]43O)C2)O[C@H](C)[C@H]1OC | – | > 90 | –
10 | CO[C@@H]1[C@@H](C)O[C@@H](N(OC)[C@H]2CC[C@@]3(C)[C@H](CC[C@@H]4[C@@H]3C[C@@H](O)[C@]3(C)[C@@H](C5=CC(=O)OC5)CC[C@]43O)C2)C[C@H]1OC | – | > 90 | –
11 | CO[C@@H]1C[C@H](N(OC)[C@H]2CC[C@@]3(C)[C@H](CC[C@@H]4[C@@H]3C[C@@H](O)[C@]3(C)[C@@H](C5=CC(=O)OC5)CC[C@]43O)C2)O[C@H](C)[C@H]1O | – | > 90 | –
12 | CON([C@H]1CC[C@@]2(C)[C@H](CC[C@@H]3[C@@H]2C[C@@H](O)[C@]2(C)[C@@H](C4=CC(=O)OC4)CC[C@]32O)C1)[C@H]1O[C@@H](CO)[C@H](O)[C@@H](O)[C@@H]1O | Active | > 90 | Active
13 | CO[C@@H]1[C@@H](O)[C@H](OC)[C@@H](C)O[C@H]1N(OC)[C@@H]1CC[C@@]2(C)[C@H](CC[C@@H]3[C@@H]2C[C@@H](O)[C@]2(C)[C@@H](C4=CC(=O)OC4)CC[C@]32O)C1 | – | > 90 | Active
14 | CO[C@@H]1[C@@H](C)O[C@@H](N(OC)[C@@H]2CC[C@@]3(C)[C@H](CC[C@@H]4[C@@H]3C[C@@H](O)[C@]3(C)[C@@H](C5=CC(=O)OC5)CC[C@]43O)C2)C[C@H]1OC | – | > 90 | –
15 | CON([C@H]1CC[C@@]2(C)[C@H](CC[C@@H]3[C@@H]2C[C@@H](O)[C@]2(C)[C@@H](C4=CC(=O)OC4)CC[C@]32O)C1)[C@@H]1O[C@H](CO)[C@@H](O)[C@H](O)[C@H]1O | – | > 90 | –
16 | CO[C@H]1[C@H](O)[C@@H](O)[C@H](N(OC)[C@H]2CC[C@@]3(C)[C@H](CC[C@@H]4[C@@H]3C[C@@H](O)[C@]3(C)[C@@H](C5=CC(=O)OC5)CC[C@]43O)C2)O[C@@H]1C | – | > 90 | –
17 | CO[C@@H]1[C@@H](O)[C@H](N(OC)[C@H]2CC[C@@]3(C)[C@H](CC[C@@H]4[C@@H]3C[C@@H](O)[C@]3(C)[C@@H](C5=CC(=O)OC5)CC[C@]43O)C2)O[C@H](C)[C@H]1O | – | > 90 | Active
18 | CO[C@@H]1[C@@H](O)[C@H](N(OC)[C@@H]2CC[C@@]3(C)[C@H](CC[C@@H]4[C@@H]3C[C@@H](O)[C@]3(C)[C@@H](C5=CC(=O)OC5)CC[C@]43O)C2)O[C@H](C)[C@H]1O | – | > 90 | –
19 | CON([C@@H]1CC[C@@]2(C)[C@H](CC[C@@H]3[C@@H]2C[C@@H](O)[C@]2(C)[C@@H](C4=CC(=O)OC4)CC[C@]32O)C1)[C@@H]1O[C@H](CO)[C@@H](O)[C@H](O)[C@H]1O | – | > 90 | Active
20 | CON([C@@H]1CC[C@@]2(C)[C@H](CC[C@@H]3[C@@H]2C[C@@H](O)[C@]2(C)[C@@H](C4=CC(=O)OC4)CC[C@]32O)C1)[C@H]1O[C@@H](CO)[C@H](O)[C@@H](O)[C@@H]1O | Active | > 90 | –
21 | CO[C@H]1[C@H](O)[C@@H](O)[C@H](N(OC)[C@@H]2CC[C@@]3(C)[C@H](CC[C@@H]4[C@@H]3C[C@@H](O)[C@]3(C)[C@@H](C5=CC(=O)OC5)CC[C@]43O)C2)O[C@@H]1C | – | > 90 | –
22 | CON([C@H]1CC[C@@]2(C)[C@H](CC[C@@H]3[C@@H]2C[C@@H](O)[C@]2(C)[C@@H](C4=CC(=O)OC4)CC[C@]32O)C1)[C@@H]1O[C@H](C)[C@@H](O)[C@H](O)[C@H]1O | – | > 90 | –
23 | CO[C@@H]1[C@@H](O)[C@H](N(OC)[C@@H]2CC[C@@]3(C)[C@H](CC[C@@H]4[C@@H]3C[C@@H](O)[C@]3(C)[C@@H](C5=CC(=O)OC5)CC[C@]43O)C2)O[C@H](C)[C@H]1OC | – | > 90 | Active
24 | CO[C@@H]1[C@@H](OC)[C@H](O)[C@@H](C)O[C@H]1N(OC)[C@H]1CC[C@@]2(C)[C@H](CC[C@@H]3[C@@H]2C[C@@H](O)[C@]2(C)[C@@H](C4=CC(=O)OC4)CC[C@]32O)C1 | – | > 90 | –
